In patent US10463609B2, “Dendrimers for sustained release of compounds” (WAYNE STATE UNIVERSITY, priority 2007, dated 2019):

How the values were obtained:
[1] = Drug release from PLGA microspheres; type: physicochemical; details: ~5-10 μm PLGA microspheres containing 5% by mass of FA
Method: Drug release from PLGA microspheres was studied as follows. The drug release kinetics for free fluocinolone acetonide was analyzed for the same PLGA microspheres. For ˜5 -10 μm microspheres (containing 5% by mass of FA), the release was ˜0.5 μg/day (average) for the first thirty days, with a cumulative release of ˜30% in one month. There was 3% initial burst in the first three days. For dendrimer-FA conjugates, the initial burst may be capable of elimination due to their relatively larger size.

[2] = tested on: activated retinal microglial cells; assay: Quantitative histology of activated retinal microglial cells by ED-1 immunolabelling, FA IDDIs in RCS rats; type: in vivo, rat; details: p<0.001
Method: FA suppressed neuroinflammation in RCS rats. In examining the mechanism of action of FA in preserving the ONL and ERG in the RCS rat, quantitative histological analysis of activated retinal microglial cells were performed using ED-1 immunolabelling. The photoreceptor layer and outer debris zone in RCS rats contain damaged lipid membranes that amplified photoreceptor damage by activating microglia to become phagocytic and release toxic substances such as tumor-necrosis factor alpha (TNF-α).

RCS rats [3] = assay: Electroretinography after single intravitreal injection of D-FA or free FA in RCS rats; type: in vivo, rat; details: for ERG a-wave amplitude change, OD / ERG a-wave amplitude change, OS / ERG b-wave amplitude change, OD / ERG b-wave amplitude change, OS: Mean±Standard Error
Method: Neuroprotective effects of dendrimer-FA (D-FA) nanodevices were determined as follows. The neuroprotective effects of intravitreally-injected D-FA nanodevices to free-FA injections and IDDIs that release free-FA at a sustained daily rate were compared. […] Here the 1 μg and 3 μg refer to the FA content in D-FA. ONL cell densities were higher for D-FA than those measured for IDDIs and free FA injections.
The efficacy was analyzed using electroretinography (ERG) and histology.
Thirty albino RCS rats aged five weeks were divided into six equal groups. The experiments were terminated at nine weeks. Thus, the efficacy was evaluated over the four-week peak period of retinal degeneration in the RCS rats. The groups were: • 1. intravitreal injection of 3.0 μg dendrimer-conjugated fluocinolone acetonide (FA) in 1.0 μL of Phosphate Buffered Solution (PBS); • 2. intravitreal injection of 1.0 μg dendrimer-conjugated FA in 1.0 μL of PBS; • 3. intravitreal injection of 3.0 μg FA in 1.0 μL of PBS; • 4. intravitreal injection of 1.0 μg FA in 1.0 μL of PBS; • 5. intravitreal injection of 1 μL of PBS (vehicle control); • 6. light-exposed unoperated controls.

RCS rats [4] = assay: Quantitative histology of ONL and INL cells, FA sustained-release intravitreal drug delivery implants (IDDIs) in RCS rats; type: in vivo, rat
From the text: According to this Example, the steroid fluocinolone acetonide (FA) was highly neuroprotective in slowing the retinal degeneration of RCS rats when delivered via sustained-release intravitreal drug delivery implants (IDDIs).

RCS rats [5] = assay: ERG b-wave amplitudes, FA IDDIs in RCS rats; type: in vivo, rat
Method: In other experiments, fluocinolone acetonide preserved electroretinogram b-wave amplitudes in treated eyes. The ONL data were consistent with ERG findings in the same animals (FIG. 9A). […] Although mean b-wave amplitude values in the eyes treated with FA 0.5 μg/day were quantitatively lower than the values in the eyes treated with FA 0.2 μg/day, there was no statistically significant difference between them (p=0.113).
Quantitatively, the left eye-ERG b-wave amplitudes of the FA 0.2 μg/day-treated group at the four-week time point were greater than those of control right and left eyes and placebo group-right and left eyes. […] The fellow-eye effects were attributed to drug-crossover. This is commonly seen in small mammals in which the volume of distribution is small.

[6] = Water solubility of the conjugate; type: physicochemical
From the text: The glutaric acid spacer relieves the steric hindrance on the dendrimer surface, enabling intracellular drug release.
The filtrate was dialysed against DMSO for three days by replacing DMSO after each day (dialysis membrane cutoff 1000 Da) to remove unreacted compounds. The dialyzed product was dried under vacuum to obtain conjugate. ^1H-NMR was used to characterize the conjugate.

[7] = tested on: Royal College of Surgeons retinal degeneration model (RCS) rats; assay: Retinal biodistribution after intravitreal injection, epi-fluorescence histology of retinal cryosections, RCS rats; type: in vivo, rat
From the text: Retinal biodistribution of free-FITC and dendrimer-conjugated FITC (D-FITC) in healthy Sprague-Dawley (SD) and Royal College of Surgeons retinal degeneration model (RCS) rats with active neuroinflammation was studied. Epi-fluorescence histology from retinal cryosections performed 24-hours and ten days after intravitreal injection is shown in […] as follows.
The first set of results is shown in FIGS. 10A-10F, epi-fluorescence histology from retinal cryosections performed twenty four hours and ten days after intravitreal injection, showing (FIG. 10A) D-FITC distribution in normal SD rats at twenty four hours, and (FIG. 10B) D-FITC distribution in the RCS retinal neurodegeneration model at twenty four hours. The concentration of D-FITC within the outer nuclear layer (denoted by *) and debris zone are significant findings.
The D-FITC localization in the outer-retina was further analyzed by immunohistochemical labeling for activated microglial cells, astrocytes, and Mueller cells and the photoreceptors (as shown in FIGS. 11A-11D, FIGS. 12A-12B, FIGS. 13A-13D, FIG. 14, and FIGS. 15A-15B). […] There was minimal accumulation in the other cells in the inner and outer retina. FIGS. 11A-11D show Microglial uptake of D-FITC. (FIG. 11A) ED-1 immuno-histochemical labeling of inner-retinal microglial cells; (FIG. 11B) D-FITC uptake within inner retinal microglia (60×); (FIG. 11C) outer retinal ED-1 labeled activated microglia; and (FIG. 11D) D-FITC uptake within activated microglia.

[8] = 1.0 μg intravitreal in 1.0 μL PBS, end of study vs beginning
[9] = 3.0 μg intravitreal in 1.0 μL PBS, end of study vs beginning
[10] = FA 0.5 μg/day IDDI, treated eyes, four-week study

CC1(C)O[C@@H]2C[C@H]3[C@@H]4C[C@H](F)C5=CC(=O)C=C[C@]5(C)[C@@]4(F)[C@@H](O)C[C@]3(C)[C@]2(C(=O)CO)O1 [FA, fluocinolone acetonide]
release rate (average) ([1]; first thirty days): ~0.5 µg/day
initial burst ([1]; first three days): 3%
cumulative release ([1]; in one month): ~30%
activated microglial cell densities in the debris layer vs eyes with inactive IDDIs ([2]; FA 0.2 μg/day IDDI): nine-fold decrease
activated microglial cell densities in the debris layer vs non-surgical control eyes ([2]; FA 0.2 μg/day IDDI): five-fold decrease
debris zone activated microglial density vs eyes with inactive IDDIs ([2]; FA 0.5 μg/day IDDI): seven times lower
debris zone activated microglial density vs non-surgical control eyes ([2]; FA 0.5 μg/day IDDI): four times lower
ERG a-wave amplitude change, OD (RCS rats [3]; [8]): −41.9 ± 13.4%
ERG a-wave amplitude change, OS (RCS rats [3]; [8]): −47.8 ± 7.7%
ERG b-wave amplitude change, OD (RCS rats [3]; [8]): −64.2 ± 8.6%
ERG b-wave amplitude change, OS (RCS rats [3]; [8]): −55.6 ± 3.6%
ERG a-wave amplitude change, OD (RCS rats [3]; 3.0 μg intravitreal in 1.0 μL PBS, end of study (9 weeks of age) vs beginning (5 weeks), loss (−)/gain (+) from initial amplitude): −12.5 ± 28.8%
ERG a-wave amplitude change, OS (RCS rats [3]; [9]): −10.5 ± 30.1%
ERG b-wave amplitude change, OD (RCS rats [3]; [9]): −42.6 ± 3.3%
ERG b-wave amplitude change, OS (RCS rats [3]; [9]): −40.8 ± 3.5%
end-point ERG a-wave (photoreceptor response) amplitudes (RCS rats [3]; at nine weeks of age, right vs left eyes): not true
ONL cell densities relative to inactive IDDI group (RCS rats [4]; FA 0.2 μg/day IDDI, treated eyes, four-week study): 4.85±0.24 times
ONL cell densities relative to non-surgical controls (RCS rats [4]; FA 0.2 μg/day IDDI, treated eyes, four-week study, nine-week RCS rats): 2.38±0.12 times
ONL counts relative to eyes that received inactive IDDIs (RCS rats [4]; [10]): 3.56±0.17 times
ONL counts relative to non-surgical control eyes (RCS rats [4]; [10]): 1.78±0.21 times
inner nuclear layer cell counts between groups (RCS rats [4]; FA 0.2 and 0.5 μg/day IDDIs vs inactive implants and non-surgical controls): No significant differences
mean four-week postoperative ERG b-wave amplitudes, treated eyes (RCS rats [5]; 0.2 μg/day and 0.5 μg/day FA IDDIs, p<0.001): significantly greater than those of the unoperated control and placebo-treated eyes
mean ERG b-wave amplitudes of left (fellow) eyes (RCS rats [5]; FA 0.2 μg/day IDDI group vs placebo-treated or control eyes): No statistically significant differences
mean ERG b-wave amplitudes of left (fellow) eyes (RCS rats [5]; FA 0.5 μg/day IDDI group, four weeks, cross-over effect): significantly different from those of right and left eyes of unoperated control animals
solubility in water [6]: not water soluble at comparable concentrations

fluorescein isothiocyanate [Free-FITC]
retinal distribution at 24 hours ([7]; RCS rats, 24 hours after intravitreal injection): uniformly distributed
retinal retention at ten days ([7]; RCS rats, ten days after intravitreal injection): cleared from the retina
FITC fluorescence in the retinal pigment epithelium (RPE) ([7]; after intravitreal injection, 24 hours, similar at ten days): No FITC fluorescence was observed
